Results as given in ChEMBL document CHEMBL2396542, “Membrane anchoring γ-secretase modulators with terpene-derived moieties” (Bioorg Med Chem Lett, 2013).

Legend:
[1] = target: T1, Presenilin-1 (Homo sapiens, UniProt P49768); assay: Modulation of human gamma-secretase presenilin-1 subunit expressed in CHO cells coexpressing human APP assessed as increase in amyloid beta 38 generation at EC50 after 24 hrs by ELISA relative to control; type: cell-based
[2] = target: T1, Presenilin-1; assay: Modulation of human gamma-secretase presenilin-1 subunit expressed in CHO cells coexpressing human APP assessed as increase in amyloid beta 38 generation after 24 hrs by ELISA; type: cell-based
[3] = target: T1, Presenilin-1; assay: Modulation of human gamma-secretase presenilin-1 subunit expressed in CHO cells coexpressing human APP assessed as decrease in amyloid beta 40 generation after 24 hrs by ELISA; type: cell-based
[4] = Micelle aggregation by compound at 5 to 100 uM by dynamic light scattering assay; type: physicochemical
[5] = Micelle formation by compound at 5 to 100 uM by dynamic light scattering assay; type: physicochemical
[6] = target: T1, Presenilin-1; assay: Modulation of human gamma-secretase presenilin-1 subunit expressed in CHO cells coexpressing human APP assessed as decrease in amyloid beta 42 generation after 24 hrs by ELISA; type: cell-based
[7] = Micelle aggregation by compound at 100 uM by dynamic light scattering assay; type: physicochemical
[8] = Micelle formation by compound at 100 uM by dynamic light scattering assay; type: physicochemical

Activity [1] [%]	EC50 [2] [µM]	IC50 [3] [µM]	Activity [4]	Activity [5]	IC50 ([6]; read-out: IC50) [µM]	IC50 ([6]; read-out: pIC50 (converted)) [µM]	Activity [7]	Activity [8]	Compound
135	13	36	Not Active	Not Active	24	39.8			C/C(=C\COC(=O)C1(C)CCc2c(C)c(OCC(=O)O)c(C)c(C)c2O1)CCC[C@H](C)CCC[C@H](C)CCCC(C)C (stereo partly drawn)
	> 100	> 100			> 100				COC(=O)COc1c(C)c(C)c2c(c1C)CCC(C)(CCCC(C)CCCC(C)CCCC(C)C)O2 (stereo not drawn)
65	10	> 50	Not Active	Not Active	28	31.6	Active	Active	CCCCCCCCCCCOc1c(C)c(C)c2c(c1C)CCC(C)(C(=O)O)O2 (stereo not drawn)
	> 50	> 50	Not Active	Not Active	57	25.1			CCCCCCCCOc1c(C)c(C)c2c(c1C)CCC(C)(C(=O)O)O2 (stereo not drawn)
35	8	39	Not Active	Not Active	28	31.6			CC(C)=CCC/C(C)=C/CC/C(C)=C/COc1c(C)c(C)c2c(c1C)CCC(C)(C(=O)O)O2 (stereo not drawn)
100	5	23	Not Active	Not Active	12	31.6			CCCCCCCCCCCOC(=O)C1(C)CCc2c(C)c(OCC(=O)O)c(C)c(C)c2O1 (stereo not drawn)
35	10	42	Not Active	Not Active	26	39.8			C/C(=C\COc1c(C)c(C)c2c(c1C)CCC(C)(C(=O)O)O2)CCC[C@H](C)CCC[C@H](C)CCCC(C)C (stereo partly drawn)
40	9	29	Not Active	Not Active	14	31.6			CCCCCCCCCCCCCCOc1c(C)c(C)c2c(c1C)CCC(C)(C(=O)O)O2 (stereo not drawn)
80	2	26	Not Active	Not Active	4	31.6			CC(C)=CCC/C(C)=C/CC/C(C)=C/Cn1c2ccc(Cl)cc2c2ccc(C(C)C(=O)O)cc21 (stereo not drawn)
35	1	25	Not Active	Not Active	27	39.8			CC(C)=CCC/C(C)=C/CC/C(C)=C/COC(=O)C1(C)CCc2c(C)c(OCC(=O)O)c(C)c(C)c2O1 (stereo not drawn)
	> 100	> 100			> 100				Cc1c(C)c2c(c(C)c1O)CCC(C)(CCCC(C)CCCC(C)CCCC(C)C)O2 (racemic) [alpha-TOCHOPHEROL]
55	4	26	Not Active	Not Active	12	31.6			Cc1c(C)c2c(c(C)c1OCC(=O)O)CCC(C)(CCCC(C)CCCC(C)CCCC(C)C)O2 (stereo not drawn)
	> 50	> 50	Not Active	Not Active	23	39.8			C/C(=C\Cn1c2ccc(Cl)cc2c2ccc(C(C)C(=O)O)cc21)CCC[C@H](C)CCC[C@H](C)CCCC(C)C (stereo partly drawn)
55	6	24	Not Active	Not Active	11	31.6			Cc1c(C)c2c(c(C)c1OCC(=O)O)CCC(C)(CCC[C@H](C)CCC[C@H](C)CCCC(C)C)O2 (stereo partly drawn)
95	6	34	Not Active	Not Active	22	39.8			CCCCCCCCCCCCCCOC(=O)C1(C)CCc2c(C)c(OCC(=O)O)c(C)c(C)c2O1 (stereo not drawn)
60	11	42	Not Active	Not Active	35				CCCCCCCCOC(=O)C1(C)CCc2c(C)c(OCC(=O)O)c(C)c(C)c2O1 (stereo not drawn)
